Measurements published in patent publication US11312713B2, “Imidazo[4,5-C]quinoline derivatives as LRRK2 inhibitors” (Pfizer Inc., priority 2017, dated 2022).

target: LRRK2, WT (GST-tagged truncated LRRK2) (Homo sapiens, UniProt Q5S007); assay: LRRK2 kinase assay (LanthaScreen), wild type; format: biochemical; conditions: LanthaScreen, LRRKtide substrate, 1 mM ATP
Method: LRRK2 kinase activity was measured using Lantha Screen technology from Invitrogen. GST-tagged truncated LRRK2 from Invitrogen (Cat #PV4874) was incubated with a fluorescein-labeled peptide substrate based upon ezrin/radixin/moesin (ERM), also known as LRRKtide (Invitrogen cat #PR8976A), in the presence of a dose response of compound. Upon completion, the assay was stopped and detected with a terbium labeled anti-phospho-ERM antibody (Invitrogen, cat #PR8975A). […] Using Echo acoustic dispensing, 60 nL of compound was transferred to a low volume Corning 384-well assay plate. 3 μL of a working solution of substrate (200 nM LRRKtide, 2 mM ATP) prepared in assay buffer (50 mM HEPES, pH 7.5, 3 mM MgCl2, with 2 mM DTT and 0.01% Brij35 added fresh) was added to the 60 nL compound assay plate. The kinase reaction was started with 3 μL of a working solution of LRRK2 enzyme at a concentration of 4 μg/m L. The final reaction concentrations were 100 nM LRRKtide, 1 mM ATP, 2 μg/mL LRRK2 enzyme and a compound dose response with a top dose of 3 μM. The reaction was allowed to progress at room temperature for 30 minutes and then stopped with the addition of 6 μL of detection buffer (20 mM Tris pH 7.6, 0.01% NP-40, 6 mM EDTA with 2 nM terbium labeled antiphospho-ERM). […] All final concentrations of substrate ATP and enzyme were the same.

Q: With `Cc1nc2cnc3ccc(Cl)cc3c2n1[C@H]1CCO[C@@H](CC#N)C1` (relative stereo) [enantiomer of Example 31, [cis-4-(8-chloro-2-methyl-1H-imidazo[4,5-c]quinolin-1-yl)tetrahydro-2H-pyran-2-yl]acetonitrile] as the compound, how does the IC50 read?
A: 1660 nM

Q: `Cc1cc(Cc2nc3cnc4ccc(Cl)cc4c3n2[C@H]2CCO[C@@H](C(F)F)C2)no1` (relative stereo) [enantiomer of Example 59, 8-chloro-1-[cis-2-(difluoromethyl)tetrahydro-2H-pyran-4-yl]-2-[(5-methyl-1,2-oxazol-3-yl)methyl]-1H-imidazo[4,5-c]quinoline] was tested. Which IC50 did it give?
A: 631 nM

Q: Which IC50 does the source give for `Fc1ccc2ncc3nc(Cc4csnn4)n([C@H]4CC[C@@H](F)C4)c3c2c1` (relative stereo) [enantiomer of Example 79, 8-fluoro-1-[cis-3-fluorocyclopentyl]-2-(1,2,3-thiadiazol-4-ylmethyl)-1H-imidazo[4,5-c]quinoline] here?
A: 7.54 nM

Q: With `FC1(F)COCCC1n1c(Cn2cncn2)nc2cnc3ccc(Cl)cc3c21` (centres unmarked) [Example 54, 8-chloro-1-(3,3-difluorotetrahydro-2H-pyran-4-yl)-2-(1H-1,2,4-triazol-1-ylmethyl)-1H-imidazo[4,5-c]quinoline] as the compound, how does the IC50 read?
A: 10.3 nM

Q: With `CC(C#N)Cc1nc2cnc3ccc(Cl)cc3c2n1[C@@H]1CCO[C@H](C)C1` (stereo partly drawn) [diastereomer of Example 78, 3-{8-chloro-1-[(2R,4R)-2-methyltetrahydro-2H-pyran-4-yl]-1H-imidazo[4,5-c]quinolin-2-yl}-2-methylpropanenitrile] as the compound, how does the IC50 read?
A: 37.2 nM

Q: `Cc1nc(Cc2nc3cnc4ccc(C#N)cc4c3n2C2CN(C)CC2(F)F)no1` (stereo not drawn) [enantiomer of Example 32, 1-(4,4-difluoro-1-methylpyrrolidin-3-yl)-2-[(5-methyl-1,2,4-oxadiazol-3-yl)methyl]-1H-imidazo[4,5-c]quinoline-8-carbonitrile] was tested. Which IC50 did it give?
A: 473 nM

Q: Which IC50 does the source give for `CN1CC(n2c(Cn3cc(C4CC4)nn3)nc3cnc4ccc(Cl)cc4c32)C(F)(F)C1` (stereo not drawn) [enantiomer of Example 47, 8-chloro-2-[(4-cyclopropyl-1H-1,2,3-triazol-1-yl)methyl]-1-(4,4-difluoro-1-methylpyrrolidin-3-yl)-1H-imidazo[4,5-c]quinoline] here?
A: 97.3 nM

Q: With `Cc1cn(Cc2nc3cnc4ccc(Cl)cc4c3n2C2CN(C)CC2(F)F)nn1` (stereo not drawn) [enantiomer of Example 48, 8-chloro-1-(4,4-difluoro-1-methylpyrrolidin-3-yl)-2-[(4-methyl-1H-1,2,3-triazol-1-yl)methyl]-1H-imidazo[4,5-c]quinoline] as the compound, how does the IC50 read?
A: 145 nM

Q: `Cc1nnn(Cc2nc3cnc4ccc(Cl)cc4c3n2C2CN(C)CC2(F)F)n1` (stereo not drawn) [enantiomer of Example 49, 8-chloro-1-(4,4-difluoro-1-methylpyrrolidin-3-yl)-2-[(5-methyl-2H-tetrazol-2-yl)methyl]-1H-imidazo[4,5-c]quinoline] was tested. Which IC50 did it give?
A: 46.2 nM

Q: Which IC50 does the source give for `Cc1cnc(Cc2nc3cnc4ccc(Cl)cc4c3n2C2CN(C)CC2(F)F)cn1` (stereo not drawn) [enantiomer of Example 50, 8-chloro-1-(4,4-difluoro-1-methylpyrrolidin-3-yl)-2-[(5-methylpyrazin-2-yl)methyl]-1H-imidazo[4,5-c]quinoline] here?
A: 181 nM

Q: `COCc1cn(Cc2nc3cnc4ccc(F)cc4c3n2C2CN(C)CC2(F)F)nn1` (stereo not drawn) [enantiomer of Example 53, 1-(4,4-difluoro-1-methylpyrrolidin-3-yl)-8-fluoro-2-{[4-(methoxymethyl)-1H-1,2,3-triazol-1-yl]methyl}-1H-imidazo[4,5-c]quinoline] was tested. Which IC50 did it give?
A: 229 nM

Q: With `COCc1cn(Cc2nc3cnc4ccc(Cl)cc4c3n2C2CCOCC2(F)F)nn1` (stereo not drawn) [enantiomer of Example 55, 8-chloro-1-(3,3-difluorotetrahydro-2H-pyran-4-yl)-2-{[4-(methoxymethyl)-1H-1,2,3-triazol-1-yl]methyl}-1H-imidazo[4,5-c]quinoline] as the compound, how does the IC50 read?
A: 15.3 nM

Q: With `Cc1nn2cc(Cc3nc4cnc5ccc(F)cc5c4n3C3CN(C)CC3(F)F)nc2s1` (stereo not drawn) [enantiomer of Example 85, 1-(4,4-difluoro-1-methylpyrrolidin-3-yl)-8-fluoro-2-[(2-methylimidazo[2,1-b][1,3,4]thiadiazol-6-yl)methyl]-1H-imidazo[4,5-c]quinoline] as the compound, how does the IC50 read?
A: 55.9 nM

Q: `CN1CC(n2c(Cn3cnnn3)nc3cnc4ccc(Cl)cc4c32)C(F)(F)C1` (stereo not drawn) [enantiomer of Example 86, 8-chloro-1-(4,4-difluoro-1-methylpyrrolidin-3-yl)-2-(1H-tetrazol-1-ylmethyl)-1H-imidazo[4,5-c]quinoline] was tested. Which IC50 did it give?
A: 271 nM

Q: Which IC50 does the source give for `Cc1cnn(Cc2nc3cnc4ccc(Cl)cc4c3n2C2CN(C)CC2(F)F)n1` (stereo not drawn) [enantiomer of Example 87, 8-chloro-1-(4,4-difluoro-1-methylpyrrolidin-3-yl)-2-[(4-methyl-2H-1,2,3-triazol-2-yl)methyl]-1H-imidazo[4,5-c]quinoline] here?
A: 37.8 nM

Q: Which IC50 does the source give for `Cc1nc(Cc2nc3cnc4ccc(Cl)cc4c3n2C2CN(C)CC2(F)F)no1` (stereo not drawn) [enantiomer of Example 88, 8-chloro-1-(4,4-difluoro-1-methylpyrrolidin-3-yl)-2-[(5-methyl-1,2,4-oxadiazol-3-yl)methyl]-1H-imidazo[4,5-c]quinoline] here?
A: 261 nM

Q: With `Cc1nnc(Cc2nc3cnc4ccc(Cl)cc4c3n2C2CCOCC2(F)F)s1` (stereo not drawn) [enantiomer of Example 92, 8-chloro-1-(3,3-difluorotetrahydro-2H-pyran-4-yl)-2-[(5-methyl-1,3,4-thiadiazol-2-yl)methyl]-1H-imidazo[4,5-c]quinoline] as the compound, how does the IC50 read?
A: 33.7 nM

Q: How did the IC50 turn out when `FC1(F)COCCC1n1c(Cn2cc(C3CC3)nn2)nc2cnc3ccc(Cl)cc3c21` (stereo not drawn) [enantiomer of Example 94, 8-chloro-2-[(4-cyclopropyl-1H-1,2,3-triazol-1-yl)methyl]-1-(3,3-difluorotetrahydro-2H-pyran-4-yl)-1H-imidazo[4,5-c]quinoline] was run?
A: 9.35 nM

same assay, conditions: wild type LRRK2; LanthaScreen, LRRKtide substrate

Q: `Cc1cnn(Cc2nc3cnc4ccc(C#N)cc4c3n2C2CN(C)CC2(F)F)n1` (single isomer, unassigned) [Example 3, 1-(4,4-Difluoro-1-methylpyrrolidin-3-yl)-2-[(4-methyl-2H-1,2,3-triazol-2-yl)methyl]-1H-imidazo[4,5-c]quinoline-8-carbonitrile] was tested. Which IC50 did it give?
A: 31.8 nM

Q: Which IC50 does the source give for `CCc1nc2cnc3ccc(Cl)cc3c2n1[C@H]1CCO[C@@H](CC#N)C1` [Example 2, [(2R,4S)-4-(8-Chloro-2-ethyl-1H-imidazo[4,5-c]quinolin-1-yl)tetrahydro-2H-pyran-2-yl]acetonitrile] here?
A: 1530 nM

Q: For `N#CCC1CC(n2c(C3CCC3)nc3cnc4ccc(Cl)cc4c32)CCO1` (stereo not drawn) [Example 10, [cis-4-(8-Chloro-2-cyclobutyl-1H-imidazo[4,5-c]quinolin-1-yl)tetrahydro-2H-pyran-2-yl]acetonitrile], which IC50 is on record?
A: 1790 nM

Q: For `FC1(F)COCCC1n1c(Cn2cncn2)nc2cnc3ccc(Cl)cc3c21` (centres unmarked) [Example 54, 8-chloro-1-(3,3-difluorotetrahydro-2H-pyran-4-yl)-2-(1H-1,2,4-triazol-1-ylmethyl)-1H-imidazo[4,5-c]quinoline], which IC50 is on record?
A: 10.3 nM

Q: For `Cc1nn2cc(Cc3nc4cnc5ccc(F)cc5c4n3C3CN(C)CC3(F)F)nc2s1` (centres unmarked) [Example 85, 1-(4,4-difluoro-1-methylpyrrolidin-3-yl)-8-fluoro-2-[(2-methylimidazo[2,1-b][1,3,4]thiadiazol-6-yl)methyl]-1H-imidazo[4,5-c]quinoline], which IC50 is on record?
A: 2.62 nM
